Values of other authors as cited in patent US9770413B2, “Amphiphilic dendron-coils, micelles thereof and uses” (THE BOARD OF TRUSTEES OF THE UNIVERSITY OF ILLINOIS, priority 2011, dated 2017).

Molecular target: folate receptors (FR)

Kd: ~100 pM
SMILES: Nc1nc2ncc(CNc3ccc(C(=O)N[C@@H](CCC(=O)O)C(=O)O)cc3)nc2c(=O)[nH]1 [FA, folic acid]
